Active and inactive are the calls of the source. The rule behind the calls is not given here.
Columns and labels:
[1] = tested on: UACC-62; experiment: Growth inhibition of human UACC62 cells at 10 uM after 48 hrs by sulforhodamine B assay; format: functional; conditions: UACC-62, 48 h, read-out: GI
[2] = tested on: UACC-257; experiment: Growth inhibition of human UACC257 cells at 10 uM after 48 hrs by sulforhodamine B assay; format: functional
[3] = tested on: SF-539; experiment: Growth inhibition of human SF539 cells at 10 uM after 48 hrs by sulforhodamine B assay; format: functional
[4] = target: Carbonic anhydrase 9 (Homo sapiens, UniProt Q16790); experiment: Inhibition of human carbonic anhydrase 9 after 15 mins by stopped flow CO2 hydration assay
[5] = tested on: OVCAR-8; experiment: Growth inhibition of human OVCAR8 cells at 10 uM after 48 hrs by sulforhodamine B assay; format: functional
[6] = tested on: ACHN; experiment: Growth inhibition of human ACHN cells at 10 uM after 48 hrs by sulforhodamine B assay; format: functional
[7] = tested on: BT-549; experiment: Growth inhibition of human BT549 cells at 10 uM after 48 hrs by sulforhodamine B assay; format: functional; conditions: BT-549, 48 h, read-out: GI
[8] = tested on: MDA-MB-468; experiment: Growth inhibition of human MDA-MB-468 cells at 10 uM after 48 hrs by sulforhodamine B assay; format: functional
[9] = tested on: HL-60(TB); experiment: Growth inhibition of human HL-60(TB) cells at 10 uM after 48 hrs by sulforhodamine B assay; format: functional; conditions: HL-60, 48 h, read-out: GI
[10] = tested on: HCT-116; experiment: Growth inhibition of human HCT116 cells at 10 uM after 48 hrs by sulforhodamine B assay; format: functional
[11] = tested on: 786-0; experiment: Growth inhibition of human 786-0 cells at 10 uM after 48 hrs by sulforhodamine B assay; format: functional
[12] = tested on: MDA-MB-435; experiment: Growth inhibition of human MDA-MB-435 cells at 10 uM after 48 hrs by sulforhodamine B assay; format: functional
[13] = tested on: SN12C; experiment: Growth inhibition of human SN12C cells at 10 uM after 48 hrs by sulforhodamine B assay; format: functional; conditions: read-out: GI
[14] = tested on: NCI-H460; experiment: Growth inhibition of human NCI-H460 cells at 10 uM after 48 hrs by sulforhodamine B assay; format: functional
[15] = tested on: MDA-MB-231; experiment: Growth inhibition of human MDA-MB-231 cells at 10 uM after 48 hrs by sulforhodamine B assay; format: functional
[16] = tested on: MOLT-4; experiment: Growth inhibition of human MOLT4 cells at 10 uM after 48 hrs by sulforhodamine B assay; format: functional; conditions: MOLT-4, 48 h, read-out: GI
[17] = tested on: SW-620; experiment: Growth inhibition of human SW620 cells at 10 uM after 48 hrs by sulforhodamine B assay; format: functional; conditions: SW-620, 48 h, read-out: GI
[18] = tested on: SF-268; experiment: Growth inhibition of human SF268 cells at 10 uM after 48 hrs by sulforhodamine B assay; format: functional
[19] = tested on: KM12; experiment: Growth inhibition of human KM12 cells at 10 uM after 48 hrs by sulforhodamine B assay; format: functional
[20] = tested on: U-251; experiment: Growth inhibition of human U251 cells at 10 uM after 48 hrs by sulforhodamine B assay; format: functional; conditions: U-251, 48 h, read-out: GI
[21] = tested on: DU-145; experiment: Growth inhibition of human DU145 cells at 10 uM after 48 hrs by sulforhodamine B assay; format: functional
[22] = tested on: SK-OV-3; experiment: Growth inhibition of human SKOV3 cells at 10 uM after 48 hrs by sulforhodamine B assay; format: functional
[23] = tested on: HCT-15; experiment: Growth inhibition of human HCT15 cells at 10 uM after 48 hrs by sulforhodamine B assay; format: functional
[24] = tested on: TK-10; experiment: Growth inhibition of human TK10 cells at 10 uM after 48 hrs by sulforhodamine B assay; format: functional
[25] = tested on: OVCAR-3; experiment: Growth inhibition of human OVCAR3 cells at 10 uM after 48 hrs by sulforhodamine B assay; format: functional
[26] = tested on: CAKI-1; experiment: Growth inhibition of human CAKI-1 cells at 10 uM after 48 hrs by sulforhodamine B assay; format: functional
[27] = tested on: MCF7; experiment: Growth inhibition of human MCF7 cells at 10 uM after 48 hrs by sulforhodamine B assay; format: functional; conditions: MCF7, 48 h, read-out: GI
[28] = tested on: SNB-75; experiment: Growth inhibition of human SNB75 cells at 10 uM after 48 hrs by sulforhodamine B assay; format: functional; conditions: SNB-75, 48 h, read-out: GI
[29] = tested on: NCI-H226; experiment: Growth inhibition of human NCI-H226 cells at 10 uM after 48 hrs by sulforhodamine B assay; format: functional
[30] = tested on: SR; experiment: Growth inhibition of human SR cells at 10 uM after 48 hrs by sulforhodamine B assay; format: functional; conditions: read-out: GI
[31] = tested on: A549; experiment: Growth inhibition of human A549/ATCC cells at 10 uM after 48 hrs by sulforhodamine B assay; format: functional
[32] = tested on: HT-29; experiment: Growth inhibition of human HT-29 cells at 10 uM after 48 hrs by sulforhodamine B assay; format: functional
[33] = tested on: RXF 393; experiment: Growth inhibition of human RXF393 cells at 10 uM after 48 hrs by sulforhodamine B assay; format: functional
[34] = tested on: HOP-62; experiment: Growth inhibition of human HOP62 cells at 10 uM after 48 hrs by sulforhodamine B assay; format: functional
[35] = tested on: SK-MEL-5; experiment: Growth inhibition of human SK-MEL-5 cells at 10 uM after 48 hrs by sulforhodamine B assay; format: functional; conditions: SK-MEL-5, 48 h, read-out: GI
[36] = tested on: SNB-19; experiment: Growth inhibition of human SNB19 cells at 10 uM after 48 hrs by sulforhodamine B assay; format: functional; conditions: SNB-19, 48 h, read-out: GI
[37] = tested on: CCRF-CEM; experiment: Growth inhibition of human CCRF-CEM cells at 10 uM after 48 hrs by sulforhodamine B assay; format: functional; conditions: read-out: GI
[38] = tested on: OVCAR-5; experiment: Growth inhibition of human OVCAR5 cells at 10 uM after 48 hrs by sulforhodamine B assay; format: functional
[39] = tested on: NCI-H522; experiment: Growth inhibition of human NCI-H522 cells at 10 uM after 48 hrs by sulforhodamine B assay; format: functional; conditions: NCI-H522, 48 h, read-out: GI
[40] = tested on: RPMI-8226; experiment: Growth inhibition of human RPMI8226 cells at 10 uM after 48 hrs by sulforhodamine B assay; format: functional
[41] = tested on: SK-MEL-2; experiment: Growth inhibition of human SK-MEL-2 cells at 10 uM after 48 hrs by sulforhodamine B assay; format: functional
[42] = tested on: HOP-92; experiment: Growth inhibition of human HOP92 cells at 10 uM after 48 hrs by sulforhodamine B assay; format: functional; conditions: HOP-92, 48 h, read-out: GI
[43] = tested on: SF-295; experiment: Growth inhibition of human SF295 cells at 10 uM after 48 hrs by sulforhodamine B assay; format: functional
[44] = tested on: EKVX; experiment: Growth inhibition of human EKVX cells at 10 uM after 48 hrs by sulforhodamine B assay; format: functional
[45] = tested on: COLO 205; experiment: Growth inhibition of human COLO205 cells at 10 uM after 48 hrs by sulforhodamine B assay; format: functional
[46] = tested on: SK-MEL-28; experiment: Growth inhibition of human SK-MEL-28 cells at 10 uM after 48 hrs by sulforhodamine B assay; format: functional, cell-based
[47] = tested on: T47D; experiment: Growth inhibition of human T47D cells at 10 uM after 48 hrs by sulforhodamine B assay; format: functional
[48] = tested on: M14; experiment: Growth inhibition of human M14 cells at 10 uM after 48 hrs by sulforhodamine B assay; format: functional; conditions: M14, 48 h, read-out: GI
[49] = Growth inhibition of human Hs 578T cells at 10 uM after 48 hrs by sulforhodamine B assay; format: functional; conditions: read-out: GI

## Cc1nn(-c2ccncc2S(N)(=O)=O)c(C)c1C
[1]
  inhibition of growth at 10 µM: 3%
[2]
  growth inhibition (GI): inactive
[3]
  growth inhibition (GI): inactive
[4]
  Ki: 23.1 nM
[5]
  growth inhibition (GI): inactive
[6]
  growth inhibition (GI): inactive
[7]
  inhibition of growth at 10 µM: 4%
[8]
  growth inhibition (GI): inactive
[9]
  inhibition of growth at 10 µM: 9%
[10]
  growth inhibition (GI): inactive
[11]
  growth inhibition (GI): inactive
[12]
  growth inhibition (GI): inactive
[13]
  inhibition of growth at 10 µM: 9%
[14]
  growth inhibition (GI): inactive
[15]
  growth inhibition (GI): inactive
[16]
  inhibition of growth at 10 µM: 5%
[17]
  inhibition of growth at 10 µM: 12%
[18]
  growth inhibition (GI): inactive
[19]
  growth inhibition (GI): inactive
[20]
  inhibition of growth at 10 µM: 1%
[21]
  growth inhibition (GI): inactive
[22]
  growth inhibition (GI): inactive
[23]
  growth inhibition (GI): inactive
[24]
  growth inhibition (GI): inactive
[25]
  growth inhibition (GI): inactive
[26]
  growth inhibition (GI): inactive
[27]
  inhibition of growth at 10 µM: 4%
[28]
  inhibition of growth at 10 µM: 6%
[29]
  growth inhibition (GI): inactive
[30]
  inhibition of growth at 10 µM: 16%
[31]
  growth inhibition (GI): inactive
[32]
  growth inhibition (GI): inactive
[33]
  growth inhibition (GI): inactive
[34]
  growth inhibition (GI): inactive
[35]
  inhibition of growth at 10 µM: 3%
[36]
  inhibition of growth at 10 µM: 1%
[37]
  inhibition of growth at 10 µM: 6%
[38]
  growth inhibition (GI): inactive
[39]
  inhibition of growth at 10 µM: 3%
[40]
  growth inhibition (GI): inactive
[41]
  growth inhibition (GI): inactive
[42]
  inhibition of growth at 10 µM: 25%
[43]
  growth inhibition (GI): inactive
[44]
  growth inhibition (GI): inactive
[45]
  growth inhibition (GI): inactive
[46]
  growth inhibition (GI): inactive
[47]
  growth inhibition (GI): inactive
[48]
  inhibition of growth at 10 µM: 2%
[49]
  inhibition of growth at 10 µM: 20%

Source: ChEMBL document CHEMBL2434896, “Carbonic anhydrase inhibitors. Synthesis of heterocyclic 4-substituted pyridine-3-sulfonamide derivatives and their inhibition of the human cytosolic isozymes I and II and transmembrane tumor-associated isozymes IX and XII” (Eur J Med Chem, 2013)
